# Source: PMC4138410 (Bioorganic & medicinal chemistry, 2014)
# Like-named read-outs stand apart in the source and are kept apart here.
# Columns and labels:
# [1] = pH 7.4; for %GSH remaining at 30 min: 0.5 h
# BoNT/A = details: cited from earlier work
# BoNT/A LC [2] = target: T1, BoNT/A LC (Clostridium botulinum, UniProt P0DPI0); format: biochemical
# BoNT/A LC [3] = target: T1, BoNT/A LC; assay: biochemical; format: biochemical
# BoNT/A LC [4] = target: T1, BoNT/A LC; assay: biochemical; format: biochemical; remark: listed apart in the source
# BoNT/A LC [5] = target: T1, BoNT/A LC; format: biochemical; remark: listed apart in the source
# T1 sequence (P0DPI0 2-425 limits assumed): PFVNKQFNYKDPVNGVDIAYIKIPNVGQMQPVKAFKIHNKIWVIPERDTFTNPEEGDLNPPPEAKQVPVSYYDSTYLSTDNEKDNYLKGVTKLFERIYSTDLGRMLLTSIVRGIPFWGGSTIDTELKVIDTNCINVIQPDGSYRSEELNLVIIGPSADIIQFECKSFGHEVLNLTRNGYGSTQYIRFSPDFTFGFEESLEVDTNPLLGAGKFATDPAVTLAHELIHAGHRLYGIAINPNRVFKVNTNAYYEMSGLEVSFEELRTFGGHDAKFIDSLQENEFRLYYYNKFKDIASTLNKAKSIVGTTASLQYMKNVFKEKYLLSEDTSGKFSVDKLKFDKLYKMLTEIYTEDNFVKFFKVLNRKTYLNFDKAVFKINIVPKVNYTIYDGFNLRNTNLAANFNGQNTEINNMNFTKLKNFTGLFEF
compound,measurement,setting,value
"O=C1C=CC(=O)c2c(O)ccc(O)c21 [Compound 13, 5,8-diOH-NQ]",%GSH remaining at 30 min,[1],39 (26) %
same,%GSH remaining at 1 hour,[1],39 (26) %
"CS(=O)(=O)SCCCN [MTSPA, (3-aminopropyl)methanethiosulfonate]",Ki,BoNT/A,7.7 µM
"O=C1C=CC(=O)c2cc(O)ccc21 [Compound 19, 6-OH-NQ]",%GSH remaining at 30 min,[1],32 (22) %
same,%GSH remaining at 1 hour,[1],32 (22) %
"COc1ccc(OC)c(CNCC(=O)Nc2cccc(OCc3ccccc3)c2)c1 [Compound 33, N-[3-(Benzyloxy)phenyl]-2-[(2,5-dimethoxybenzyl)amino]acetamide]",inhibition of BoNT/A in 66-mer assay (in words),BoNT/A LC [2],well tolerated
"O=C1C=CC(=O)C(CC(=O)O)=C1 [Compound 22, 2-(3,6-Dioxocyclohexa-1,4-dien-1-yl)acetic acid]",inhibition of BoNT/A in 66-mer assay (in words),BoNT/A LC [2],fairly active
same,kinact/KI,BoNT/A LC [3],2.5 M⁻¹ s⁻¹
"O=C1C=CC(=O)C=C1 [Compound 3, BQ]",irreversible/time-dependent inactivation in 66-mer assay (in words),BoNT/A LC [3],comparable to the SNAPtide assay
"COc1ccc(OC)c(Cn2cnc(C(=O)NCc3ccc(-c4ccccc4)cc3)n2)c1 [Compound 38, N-([1,1′-Biphenyl]-4-ylmethyl)-1-(2,5-dimethoxybenzyl)-1H-1,2,4-triazole-3-carboxamide]",inhibition of BoNT/A in 66-mer assay (in words),BoNT/A LC [2],decrease in activity
"O=C1C=CC(=O)C(Nc2cccc(C(=O)NCc3ccc(Oc4ccccc4)cc3)n2)=C1 [Compound 31, 6-[(3,6-Dioxocyclohexa-1,4-dien-1-yl)amino]-N-(4-phenoxybenzyl)picolinamide]",fold increase in activity by adding the phenoxyphenyl fragment,BoNT/A LC [2],7 fold
same,fold increase in potency by addition of BQ vs analogous amino acetamide,BoNT/A LC [2],21 fold
"CC1=CC(=O)C=C(C)C1=O [Compound 25, 2,6-diMe-BQ]",%GSH remaining at 30 min,[1],0%
"O=C(NCc1ccc(Oc2ccccc2)cc1)c1ccccn1 [Compound 35, N-(4-phenoxybenzyl)picolinamide]",inhibition of BoNT/A in 66-mer assay (in words),BoNT/A LC [2],high IC50 values
"COc1cccc2c1C(=O)C=CC2=O [Compound 18, 5-OMe-NQ]",%GSH remaining at 30 min,[1],27 (14) %
same,%GSH remaining at 1 hour,[1],27 (14) %
"COC1=CC(=O)C=C(OC)C1=O [Compound 24, 2,6-diOMe-BQ]",%GSH remaining at 30 min,[1],0%
"O=C1C=CC(=O)C(Cn2cnc(C(=O)NCc3ccc(-c4ccccc4)cc3)n2)=C1 [Compound 32, N-([1,1′-Biphenyl]-4-ylmethyl)-1-[(3,6-dioxocyclohexa-1,4-dien-1-yl)methyl]-1H-1,2,4-triazole-3-carboxamide]",fold increase in potency by addition of BQ vs analogous amino acetamide,BoNT/A LC [2],64 fold
"O=C1C=CC(=O)C(CNCC(=O)Nc2cccc(OCc3ccccc3)c2)=C1 [Compound 30, N-[3-(Benzyloxy)phenyl]-2-{[(3,6-dioxocyclohexa-1,4-dien-1-yl)methyl]amino}acetamide]",fold increase in potency by addition of BQ vs analogous amino acetamide,BoNT/A LC [2],26 fold
"CCN1C(=O)C=CC1=O [N-ethylmaleimide, reference compound]",inactivation of BoNT/A in SNAPtide screen (in words),BoNT/A LC [4],weakly inactivated
same,inhibitory rank in SNAPtide assay (in words),BoNT/A LC [4],one of the weakest inhibitors tested
chicoric acid [CA],effect on BQ-mediated inactivation of BoNT/A (in words),BoNT/A LC [5],not affected
"NCC(=O)Nc1ccc(Oc2ccccc2)cc1 [Compound 28, 2-Amino-N-(4-phenoxyphenyl)acetamide]",effect on BQ-mediated inactivation of BoNT/A (in words),BoNT/A LC [5],competed
"CC1=CC(=O)C=CC1=O [Compound 12, 2-Me-BQ]",kinact/KI,BoNT/A LC [4],3.5 M⁻¹ s⁻¹
C=CC(=O)Nc1cccnc1 [Compound 41],inhibition of BoNT/A in 66-mer assay (in words),BoNT/A LC [2],weakly inhibited
same,irreversible/time-dependent inactivation in 66-mer assay (in words),BoNT/A LC [3],no irreversible inhibition
"COC1=CC(=O)C(OC)=C(c2ccc(C)cc2)C1=O [Compound 21, 2,5-diOMe-3-Tol-BQ]",%GSH remaining at 30 min,[1],49 (35) %
same,%GSH remaining at 1 hour,[1],49 (35) %
"O=C(NCc1ccc(-c2ccccc2)cc1)c1nc[nH]n1 [Compound 39, N-([1,1′-Biphenyl]-4-ylmethyl)-1H-1,2,4-triazole-3-carboxamide]",inhibition of BoNT/A in 66-mer assay (in words),BoNT/A LC [2],high IC50 values
"COc1ccc(OC)c(Nc2cccc(C(=O)NCc3ccc(Oc4ccccc4)cc3)n2)c1 [Compound 34, 6-[(2,5-Dimethoxyphenyl)amino]-N-(4-phenoxybenzyl)picolinamide]",inhibition of BoNT/A in 66-mer assay (in words),BoNT/A LC [2],decrease in activity
"O=C1C=C(Cl)C(=O)C=C1Cl [Compound 1, 2,5-diCl-BQ]",effect on catalytic activity (in words),BoNT/A LC [4],completely abrogated catalytic activity
same,%GSH remaining at 10 s,[1]; 10 s,0%
same,%GSH remaining at 30 min,[1],0%
